Where a name gives a salt, the structure may show the parent alone.
Assay: Dynamic Vapour Sorption (DVS) assessment
Type: physicochemical
Description: A Dynamic Vapour Sorption (DVS) profile of Form 1 was obtained using an SMS DVS-1 with water as a reagent at 25° C. 20-30 mg of sample were placed in a glass bulb and equilibrated at 30% RH. The % RH was increased to 90% in 10% steps.

deliquescence (exposed to atmospheric moisture / DVS profile): not to be deliquescent
weight gain (hygroscopicity) (humidity range of 30% relative humidity to 90% relative humidity, water, 25° C.): less than 2.0%
sorption/desorption profile (two sorption/desorption cycles, 0-90% RH in 10% steps, 25° C.): reversible
Compound: COc1cc(NC(=O)CCN2CCC(OC(=O)Nc3ccccc3-c3ccccc3)CC2)c(Cl)cc1CNC[C@H](O)c1ccc(O)c2[nH]c(=O)ccc12 [Form 1, Biphenyl-2-ylcarbamic Acid 1-[2-(2-Chloro-4-{[(R)-2-hydroxy-2-(8-hydroxy-2-oxo-1,2-dihydroquinolin-5-yl)ethylamino]methyl}-5-methoxyphenylcarbamoyl)-ethyl]piperidin-4-yl Ester Succinic Acid Salt (Form 1)]

Source: patent US7960551B2, “Compound” (Glaxo Group Limited, priority 2007, dated 2011)
